In patent US5068325A, “4,5,7,8-tetrahydro-6H-thiazolo[5,4-d]azepines, their preparation and their use as pharmaceutical compositions” (priority 1988, dated 1991):

How the values were obtained:
Format in all cases: binding
[1] = target: T1, serotonin-1A(5-HT1A) receptors (Rattus norvegicus, UniProt P19327); experiment: affinity for serotonin-1A (5-HT1A) receptors by displacement experiments with [3H]-8-OH-DPAT (rat frontal cortex); settings: [3H]-8-OH-DPAT; rat frontal cortex; read-out: 5-HT1A-Ki
T1 construct: The frontal cortex was dissected out; from tissue; host or cells: rat frontal cortex homogenate (Chbb:Thom strain)
T1 sequence (P19327 1-422): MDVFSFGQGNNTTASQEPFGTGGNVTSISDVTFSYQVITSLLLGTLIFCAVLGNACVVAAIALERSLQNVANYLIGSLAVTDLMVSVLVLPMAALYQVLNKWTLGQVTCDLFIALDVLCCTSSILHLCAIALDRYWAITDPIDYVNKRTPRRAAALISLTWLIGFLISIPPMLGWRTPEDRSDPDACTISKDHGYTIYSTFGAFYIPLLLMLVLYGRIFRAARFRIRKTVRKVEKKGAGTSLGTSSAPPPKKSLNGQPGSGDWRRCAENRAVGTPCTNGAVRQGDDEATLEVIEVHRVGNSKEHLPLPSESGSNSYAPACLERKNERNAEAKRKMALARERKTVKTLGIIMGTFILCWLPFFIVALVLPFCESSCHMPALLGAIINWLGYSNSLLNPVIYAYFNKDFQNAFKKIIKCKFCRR
Procedure: 3. […] (Method of S. J. Peroutka, J. Neurochem. 47, 529 (1986), modified according to H. Gozlan et al., J. Receptor Research 7. 195 (1987))
A male rat (Chbb:Thom strain weighing about 200 g) was decapitated. The brain was removed and placed in ice-cold buffer (50 mmol/1 tris-HCl plus hydrochloric acid ad pH =7.4 at ambient temperature). The frontal cortex was dissected out; its moist weight was determined. It was homogenised in 40 times its volume of buffer (Polytron, position 6, 10 seconds), then centrifuged for 20 minutes at 45,000×g in the refrigerated centrifuge. The pellet was washed in 100 times its volume of buffer and centrifuged again as described above. The resulting pellet was resuspended in 40 times its volume of buffer and pre-incubated for 10 minutes at 37° C. Sixty times the volume of buffer were added and centrifuging was carried out as above. The resulting pellet was washed with 100 times the volume of buffer and centrifuged as above. The pellet was resuspended in buffer (0.8 ml/10 mg) and briefly homogenised in the Polytron. This homogenised tissue was cooled in ice until ready for incubation.
Incubation was stopped by rapid filtering through Whatman GF/B filters; rinsing was carried out twice, each time with 5 ml of ice cold buffer (Filter Prep, Messrs. Ismatec). The radioactivity of the filters was determined by liquid scintillation measurement.
(§1) Specific binding is obtained from total binding minus non-specific binding.

[2] = target: T2, serotonin-2(5-HT2)-receptors (Rattus norvegicus, UniProt P14842); experiment: affinity for serotonin-2 (5-HT2) receptors by displacement experiments with [3H]-spiperone (rat frontal cortex)
T2 construct: The frontal cortex was dissected out and placed in ice cold 0.32 M saccharose solution; from tissue; host or cells: rat frontal cortex homogenate (Chbb:Thom strain)
Procedure: as §1
A male rat (Chbb:Thom strain, about 200 g) was decapitated. The brain was removed. The frontal cortex was dissected out and placed in ice cold 0.32 M saccharose solution; its moist weight was determined. It was homogenised in 10 times the volume (0.32 M) of saccharose solution for 1 minute at 800 rpm in a Potter S (made by Braun of Melsungen). The homogenised material was centrifuged for 10 minutes at 1000×g (=3,000 rpm with a rotor 8×38 ml) in a refrigerated centrifuge. The supernatant was decanted off and homogenised (Polytron, position 5, 1 minute); the sediment was discarded. 5 ml (=0.5 g moist weight) of the tissue suspension thus obtained were made up to 40 ml with buffer (50 mm tris-HCl; pH=7.7 at ambient temperature).
0.8 ml of the buffered homogenised tissue (=10 mg moist weight) were incubated with 0.1 ml of a solution of [^3 H]-spiperone (about 0.2 nmol/1 final concentration) and with 0.1 ml of a solution of the test substance (increasing concentration) for 15 minutes at 37° C. (triple measurement). Incubation was stopped by rapid filtering through a Whatman GF/B filter; rinsing was carried out 3 times, each time with 5 ml of ice cold buffer within a maximum of 10 seconds (Filter Prep Messrs. Ismatec). The radioactivity of the filters was determined by liquid scintillation measurement.
The specific binding is obtained from the total binding minus the non-specific binding. The averages of the triple measurements are entered in a system of coordinates as in 1.3. The IC50 value is the concentration which inhibits the specific binding of [^3 H]-spiperone by 50%.

dopamine D1-receptors = target: T3, dopamine D1-receptors (Rattus norvegicus, UniProt P18901); experiment: affinity for dopamine D1-receptors by displacement experiments with [3H]-Sch 23390
T3 construct: The striata were dissected out, weighed and homogenised in 25 volumes of tris buffer; from tissue; host or cells: rat striatum membranes (Chbb:Thom strain), prepared as for the D2 assay
Procedure: Male rats (of the Chbb:Thom strain weighing about 200 g) were killed by a blow to the back of the neck. The brains were removed and dissected on ice. The striata were dissected out, weighed and homogenised in 25 volumes of tris buffer (50 mM tris-HCl, 1 mM EDTA, 5 mM MgCl2 and 1 mM ascorbic acid) for 30 seconds in an Ultra-Turrax at maximum speed, followed by 10 cycles in a Potter-Elvehjem at 1400 rpm. The pellet obtained after centrifuging at 50,000×g at 4° C. for 15 minutes was again taken up in 25 ml of tris buffer and centrifuged under the above conditions. The supernatant was discarded and the pellet obtained was incubated in 25 ml of tris buffer at 37° C. for 30 minutes and then centrifuged again at 50,000×g at 4° C. for 15 minutes. Finally, the pellet obtained was mixed with tris buffer to obtain a homogenate dilution of 1:500 (based on the weight of the striata).
Displacement curves were obtained from the data using the TOPFIT programming package (G. Heinzel in "Pharmacokinetics During Drug Development: Data Analysis and Evaluation Techniques", G. Bozler and J. M. van Rossum Eds., G. Fischer Verlag, Stuttgart 1982, 207).
7. Determining the affinity for dopamine D1-receptors by displacement experiments with [^3 H1-Sch 23390
The membrane preparation and data analysis were carried out as described for determining the affinity for dopamine D2 - receptors.
1 ml aliquots of the membrane preparation were incubated for 1 hour at ambient temperature with 1 ml of a solution of 0.25 nM [^3 H]-Sch 23390 (2.44 TBq/mmol, Messrs. DuPont NEN) and with increasing concentrations of the test substance (10^-11 to 10^-4 M). Incubation was ended by the addition of 5 ml of ice cold tris buffer and filtration through Whatman GF/B filters. The filters were washed twice, each time with 5 ml of ice cold buffer. The radioactivity of the filters was determined by liquid scintillation measurement in Instagel(R) (Messrs. Canberra Packard).
The non-specific binding was determined in the presence of 10^-6 M (-)-butaclamol (Research Biochemicals Inc.).

T3 sequence (P18901 whole entry): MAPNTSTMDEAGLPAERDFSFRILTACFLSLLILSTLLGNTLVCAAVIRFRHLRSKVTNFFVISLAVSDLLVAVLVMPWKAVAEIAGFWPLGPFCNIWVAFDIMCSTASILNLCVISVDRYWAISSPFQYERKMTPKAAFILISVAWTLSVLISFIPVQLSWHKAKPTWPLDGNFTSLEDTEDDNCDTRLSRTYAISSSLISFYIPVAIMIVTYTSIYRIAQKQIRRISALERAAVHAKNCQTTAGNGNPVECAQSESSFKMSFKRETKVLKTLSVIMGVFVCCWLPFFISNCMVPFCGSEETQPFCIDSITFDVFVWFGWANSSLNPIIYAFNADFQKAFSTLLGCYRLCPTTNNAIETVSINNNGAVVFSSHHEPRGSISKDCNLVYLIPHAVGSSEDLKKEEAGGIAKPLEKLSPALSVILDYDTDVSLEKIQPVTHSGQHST
T2 sequence (P14842 whole entry): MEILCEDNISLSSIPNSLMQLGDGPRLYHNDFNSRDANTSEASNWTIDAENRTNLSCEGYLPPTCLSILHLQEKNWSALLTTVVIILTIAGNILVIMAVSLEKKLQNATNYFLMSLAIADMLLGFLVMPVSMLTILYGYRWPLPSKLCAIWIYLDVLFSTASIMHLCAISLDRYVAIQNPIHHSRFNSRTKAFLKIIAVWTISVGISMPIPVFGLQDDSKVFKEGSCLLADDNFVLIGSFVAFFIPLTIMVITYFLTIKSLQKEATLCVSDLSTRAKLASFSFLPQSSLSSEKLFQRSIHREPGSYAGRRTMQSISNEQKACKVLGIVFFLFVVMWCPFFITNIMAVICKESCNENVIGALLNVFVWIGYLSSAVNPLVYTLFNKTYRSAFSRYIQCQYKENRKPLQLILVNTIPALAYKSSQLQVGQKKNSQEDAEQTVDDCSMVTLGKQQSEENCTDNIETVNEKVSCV

Compound	Ki [1] [nM]	Ki [2] [nM]	Ki (dopamine D1-receptors) [nM]
Nc1nc2c(s1)CCN(Cc1ccc(Cl)cc1)CC2 [Compound B, reference compound]	–	18400	11000
Nc1nc2c(s1)CCN(CC=Cc1cccc3ccccc13)CC2 [Example 4t, 2-Amino-6-(3-(1-naphthyl)allyl)-4,5,7,8-tetrahydro-6H-thiazolo[5,4-d]azepine]	350	26	210
Nc1nc2c(s1)CCN(CC=Cc1cccc(OCc3ccccc3)c1)CC2 [Example 4y, 2-Amino-6-(3-(3-benzyloxy-phenyl)allyl)-4,5,7,8-tetrahydro-6H-thiazolo[5,4-d]azepine]	23000	470	1500
Nc1nc2c(s1)CCN(CC=Cc1ccccc1N1CCCCC1)CC2 [Example 11p, 2-Amino-6-(3-(2-(1-piperidino)phenyl)-2-propen-1-yl)-4,5,7,8-tetrahydro-6H-thiazolo[5,4-d]azepine]	1770	558	920
N#Cc1ccc(C=CCN2CCc3nc(N)sc3CC2)cc1 [Example 14b, 2-Amino-6-(3-(4-cyano-phenyl)allyl)-4,5,7,8-tetrahydro-6H-thiazolo[5,4-d]azepine]	7800	15000	–

The remaining lines, values ahead:

Ki [1] [nM]	Ki [2] [nM]	Ki (dopamine D1-receptors) [nM]	Compound
4690	20200	12000	C=CCN1CCc2nc(N)sc2CC1 [Compound A, reference compound]
1100	120	180	Nc1nc2c(s1)CCN(CC=Cc1nccc3ccccc13)CC2 [Example 7a, 2-Amino-6-(3-(1-isoquinolinyl)allyl)-4,5,7,8-tetrahydro-6H-thiazolo[5,4-d]azepine]
3500	560	3000	Nc1nc2c(s1)CCN(CC=Cc1cc3ccccc3cn1)CC2 [Example 24a, 2-Amino-6-(3-(3-isoquinolinyl)allyl)-4,5,7,8-tetrahydro-6H-thiazolo[5,4-d]azepine]
